Assay results published in ChEMBL document CHEMBL5465560, “Selectivity Literature for EUbOPEN Chemogenomic Library” (2024).
One block for each molecule: values may come before it.

Columns and labels:
Insulin receptor = Insulin receptor (Homo sapiens, UniProt P06213); assay: Selectivity interaction (Kinase panel (Z-LYTE Assay)) EUB0001632a INSR; conditions: at 10 µM
[1] = target: T1, Serine/threonine-protein kinase haspin (Homo sapiens) (UniProt Q8TF76); assay: Selectivity interaction (Kinase panel (DSF assay)) EUB0001559a GSG2
T1 sequence (whole entry): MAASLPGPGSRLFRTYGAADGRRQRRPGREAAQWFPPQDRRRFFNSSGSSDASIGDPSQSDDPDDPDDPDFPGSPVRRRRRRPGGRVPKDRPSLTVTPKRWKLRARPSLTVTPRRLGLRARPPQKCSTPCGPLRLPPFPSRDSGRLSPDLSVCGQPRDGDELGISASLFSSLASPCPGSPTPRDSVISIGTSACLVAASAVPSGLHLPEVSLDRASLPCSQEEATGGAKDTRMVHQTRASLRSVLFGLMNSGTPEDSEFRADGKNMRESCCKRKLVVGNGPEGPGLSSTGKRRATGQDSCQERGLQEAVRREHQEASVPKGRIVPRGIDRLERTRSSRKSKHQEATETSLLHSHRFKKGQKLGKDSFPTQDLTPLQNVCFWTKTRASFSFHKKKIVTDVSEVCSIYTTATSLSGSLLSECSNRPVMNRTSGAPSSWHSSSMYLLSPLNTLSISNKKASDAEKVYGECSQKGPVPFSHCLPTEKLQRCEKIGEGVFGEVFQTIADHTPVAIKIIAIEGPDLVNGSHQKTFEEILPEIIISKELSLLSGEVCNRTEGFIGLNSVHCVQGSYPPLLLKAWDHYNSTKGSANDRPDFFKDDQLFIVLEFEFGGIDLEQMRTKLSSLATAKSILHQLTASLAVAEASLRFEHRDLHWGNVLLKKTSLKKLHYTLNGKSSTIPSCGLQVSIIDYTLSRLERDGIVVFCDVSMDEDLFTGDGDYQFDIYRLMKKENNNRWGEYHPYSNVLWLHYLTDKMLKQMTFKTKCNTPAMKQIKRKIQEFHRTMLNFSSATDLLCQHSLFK

[2] = target: Maternal embryonic leucine zipper kinase (Homo sapiens) (UniProt Q14680); assay: Selectivity interaction (KinomeScan (DiscoverX)) EUB0000655a MELK; conditions: at 10 µM
[3] = target: T2, Cyclin-dependent kinase 11A (Homo sapiens) (UniProt Q9UQ88); assay: Selectivity interaction (KinomeScan (DiscoverX)) EUB0000092b CDK11A; conditions: at 10 µM
T2 sequence (whole entry): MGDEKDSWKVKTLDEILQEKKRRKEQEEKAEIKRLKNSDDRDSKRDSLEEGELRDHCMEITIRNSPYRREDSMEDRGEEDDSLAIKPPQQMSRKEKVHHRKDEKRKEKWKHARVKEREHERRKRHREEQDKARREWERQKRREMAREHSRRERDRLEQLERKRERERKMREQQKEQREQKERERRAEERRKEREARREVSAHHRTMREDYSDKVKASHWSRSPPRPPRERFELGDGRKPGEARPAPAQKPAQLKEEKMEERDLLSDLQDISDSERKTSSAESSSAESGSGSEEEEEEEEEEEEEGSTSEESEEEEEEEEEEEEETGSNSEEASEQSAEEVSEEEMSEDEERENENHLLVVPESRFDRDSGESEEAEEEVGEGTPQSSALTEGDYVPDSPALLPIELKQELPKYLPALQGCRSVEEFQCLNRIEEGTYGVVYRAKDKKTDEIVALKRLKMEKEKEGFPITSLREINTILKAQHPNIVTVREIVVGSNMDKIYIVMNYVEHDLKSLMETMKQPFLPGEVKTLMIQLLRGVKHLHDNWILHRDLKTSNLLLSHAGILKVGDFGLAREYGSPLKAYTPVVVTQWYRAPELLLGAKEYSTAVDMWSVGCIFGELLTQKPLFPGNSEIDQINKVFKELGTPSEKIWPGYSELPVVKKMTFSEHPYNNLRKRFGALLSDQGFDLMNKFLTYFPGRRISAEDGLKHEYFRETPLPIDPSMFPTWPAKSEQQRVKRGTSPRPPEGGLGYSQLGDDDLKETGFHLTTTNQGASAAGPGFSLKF

[4] = target: T3, Serine/threonine-protein kinase 36 (Homo sapiens) (UniProt Q9NRP7); assay: Selectivity interaction (KinomeScan (DiscoverX)) EUB0000092b STK36; conditions: at 10 µM
T3 sequence (whole entry): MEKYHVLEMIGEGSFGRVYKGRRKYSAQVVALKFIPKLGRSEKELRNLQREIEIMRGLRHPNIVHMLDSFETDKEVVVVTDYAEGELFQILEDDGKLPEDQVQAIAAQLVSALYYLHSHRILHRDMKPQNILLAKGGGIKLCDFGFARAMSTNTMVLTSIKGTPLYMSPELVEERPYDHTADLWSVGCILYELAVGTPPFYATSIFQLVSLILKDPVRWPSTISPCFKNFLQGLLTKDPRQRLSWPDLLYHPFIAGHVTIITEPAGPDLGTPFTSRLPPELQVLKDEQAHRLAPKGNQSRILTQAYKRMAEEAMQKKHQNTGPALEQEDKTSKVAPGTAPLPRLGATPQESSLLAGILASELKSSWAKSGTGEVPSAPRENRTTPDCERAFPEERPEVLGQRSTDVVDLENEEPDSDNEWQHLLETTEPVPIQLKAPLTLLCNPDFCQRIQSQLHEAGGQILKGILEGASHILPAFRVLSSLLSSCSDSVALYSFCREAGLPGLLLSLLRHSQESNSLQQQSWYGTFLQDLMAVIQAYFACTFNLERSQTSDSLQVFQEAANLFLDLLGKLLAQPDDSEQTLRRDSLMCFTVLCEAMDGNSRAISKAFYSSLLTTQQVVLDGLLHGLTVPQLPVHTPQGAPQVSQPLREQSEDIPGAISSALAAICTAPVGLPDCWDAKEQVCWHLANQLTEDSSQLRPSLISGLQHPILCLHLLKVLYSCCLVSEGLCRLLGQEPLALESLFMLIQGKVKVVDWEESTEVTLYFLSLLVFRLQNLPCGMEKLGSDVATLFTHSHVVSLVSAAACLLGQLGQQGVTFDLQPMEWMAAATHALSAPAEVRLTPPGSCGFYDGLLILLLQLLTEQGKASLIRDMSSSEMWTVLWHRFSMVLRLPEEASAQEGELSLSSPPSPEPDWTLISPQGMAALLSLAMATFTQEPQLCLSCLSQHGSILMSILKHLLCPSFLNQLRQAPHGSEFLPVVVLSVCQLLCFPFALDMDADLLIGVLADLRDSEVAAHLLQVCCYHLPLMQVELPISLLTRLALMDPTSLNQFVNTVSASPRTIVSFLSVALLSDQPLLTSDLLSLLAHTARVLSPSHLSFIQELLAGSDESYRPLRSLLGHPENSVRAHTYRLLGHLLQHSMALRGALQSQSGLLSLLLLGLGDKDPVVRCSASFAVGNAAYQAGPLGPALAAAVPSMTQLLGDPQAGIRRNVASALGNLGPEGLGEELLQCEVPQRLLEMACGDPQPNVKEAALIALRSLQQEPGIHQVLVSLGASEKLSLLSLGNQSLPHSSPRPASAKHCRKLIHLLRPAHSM

Chain of Maternal embryonic leucine zipper kinase (Homo sapiens) (Q14680 whole entry, looked up): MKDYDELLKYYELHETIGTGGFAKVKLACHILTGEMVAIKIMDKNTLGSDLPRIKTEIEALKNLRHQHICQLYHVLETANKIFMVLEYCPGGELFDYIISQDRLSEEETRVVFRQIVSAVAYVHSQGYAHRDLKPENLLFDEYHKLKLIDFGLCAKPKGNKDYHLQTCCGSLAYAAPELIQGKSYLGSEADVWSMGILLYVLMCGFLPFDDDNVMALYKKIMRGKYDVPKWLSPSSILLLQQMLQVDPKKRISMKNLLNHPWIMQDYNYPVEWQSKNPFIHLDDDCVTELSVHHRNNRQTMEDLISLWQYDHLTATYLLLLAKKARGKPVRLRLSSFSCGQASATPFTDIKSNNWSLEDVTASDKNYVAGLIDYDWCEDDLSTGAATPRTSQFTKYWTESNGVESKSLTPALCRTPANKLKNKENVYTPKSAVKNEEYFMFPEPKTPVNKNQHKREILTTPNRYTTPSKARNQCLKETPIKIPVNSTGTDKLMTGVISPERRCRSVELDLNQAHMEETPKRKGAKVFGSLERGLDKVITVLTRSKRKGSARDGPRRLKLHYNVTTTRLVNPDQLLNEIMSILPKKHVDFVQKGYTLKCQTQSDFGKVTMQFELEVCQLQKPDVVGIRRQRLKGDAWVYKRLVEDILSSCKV
Chain of Insulin receptor (P06213 28-758 limits assumed): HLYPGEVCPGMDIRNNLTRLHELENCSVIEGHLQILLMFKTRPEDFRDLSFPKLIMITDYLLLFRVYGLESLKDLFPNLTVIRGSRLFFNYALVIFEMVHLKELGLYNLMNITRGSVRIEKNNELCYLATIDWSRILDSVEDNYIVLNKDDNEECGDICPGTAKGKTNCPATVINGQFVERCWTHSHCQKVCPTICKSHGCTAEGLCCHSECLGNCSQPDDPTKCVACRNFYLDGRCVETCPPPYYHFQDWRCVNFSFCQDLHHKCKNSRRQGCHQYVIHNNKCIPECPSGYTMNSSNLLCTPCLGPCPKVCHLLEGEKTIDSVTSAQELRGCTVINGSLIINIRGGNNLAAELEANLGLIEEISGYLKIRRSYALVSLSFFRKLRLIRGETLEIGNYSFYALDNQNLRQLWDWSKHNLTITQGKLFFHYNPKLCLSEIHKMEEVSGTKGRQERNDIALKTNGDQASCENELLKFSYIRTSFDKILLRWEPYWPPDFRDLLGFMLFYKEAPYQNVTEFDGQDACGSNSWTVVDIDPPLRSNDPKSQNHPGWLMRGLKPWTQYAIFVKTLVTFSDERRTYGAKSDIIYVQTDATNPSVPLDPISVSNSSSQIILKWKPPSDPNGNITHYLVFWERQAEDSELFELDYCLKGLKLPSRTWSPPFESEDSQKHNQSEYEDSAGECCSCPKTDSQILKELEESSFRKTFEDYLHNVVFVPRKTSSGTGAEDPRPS
Chain of Insulin receptor (P06213 763-1382 limits assumed): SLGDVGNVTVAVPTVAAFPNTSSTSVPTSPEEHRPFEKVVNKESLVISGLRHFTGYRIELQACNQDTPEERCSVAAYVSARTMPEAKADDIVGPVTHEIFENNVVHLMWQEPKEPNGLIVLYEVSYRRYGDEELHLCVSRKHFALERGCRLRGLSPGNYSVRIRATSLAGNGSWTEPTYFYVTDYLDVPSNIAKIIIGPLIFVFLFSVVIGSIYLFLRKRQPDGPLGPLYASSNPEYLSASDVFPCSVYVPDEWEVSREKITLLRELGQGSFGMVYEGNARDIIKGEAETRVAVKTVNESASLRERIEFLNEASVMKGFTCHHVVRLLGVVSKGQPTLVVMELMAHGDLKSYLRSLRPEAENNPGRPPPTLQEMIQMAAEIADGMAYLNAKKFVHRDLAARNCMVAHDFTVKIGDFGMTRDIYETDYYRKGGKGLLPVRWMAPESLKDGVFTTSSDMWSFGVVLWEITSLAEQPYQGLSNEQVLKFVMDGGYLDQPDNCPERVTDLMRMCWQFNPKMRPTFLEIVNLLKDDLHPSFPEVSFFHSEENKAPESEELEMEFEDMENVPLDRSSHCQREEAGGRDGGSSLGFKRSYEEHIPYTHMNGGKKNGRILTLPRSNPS

- % of control (Insulin receptor): -1.61%
SMILES: Cn1cc(-n2cnc3c(NCc4nc5cc(Cl)c(Cl)cc5[nH]4)nc(N4CCOCC4)nc32)cn1

- dTM [1]: 1.8 K
SMILES: CN(C(=O)c1cnn2cccnc12)c1cc2c(cc1N1CCOCC1)C(=O)N(C[C@@H](F)C(C)(C)O)C2

SMILES: CN(C)CCOc1ccc(-c2nc(-c3ccncc3)c(-c3ccc4c(c3)CC/C4=N\O)[nH]2)cc1
- % of control [2]: 100%

SMILES: CCC(=O)N1CCN(c2ccc(-n3c(=O)ccc4cnc5ccc(-c6cnc7ccccc7c6)cc5c43)cc2C(F)(F)F)CC1
- % of control [3]: 100%
- % of control [4]: 17%
